Columns and labels:
[1] = target: Tyrosine-protein kinase Fyn (Homo sapiens, UniProt P06241); experiment: Inhibition of human recombinant full-length Fyn using Src substrate peptide after 15 mins incubation by MicroBeta liquid scintillation counting analysis
[2] = Metabolic stability in human liver microsomes measured after 1 hr in presence of NADPH generating system; type: ADME; settings: read-out: Stability
[3] = Permeability of the compound by BBB-PAMPA-LC-UV analysis; type: physicochemical
[4] = Permeability of the compound by PAMPA-LC-UV analysis; type: physicochemical
K562 [5] = experiment: Antiproliferative activity against human K562 cells assessed as vitality after 72 hrs by automatic cell counting analysis; type: functional, cell-based; settings: K562, 72 h
[6] = Anticancer activity against human U87 cells assessed as cell growth inhibition after 20 to 70 hrs by Real-time RTCA iCELLgence system; type: functional, cell-based, U-87MG ATCC; settings: U-87 MG
[7] = Induction of apoptosis in Ph+ CML patient CD34+ early hematopoietic progenitor cells assessed as increase in apoptotic level at 2 uM after 48 hrs by Annexin V-FITC/Propidium iodide staining based FACSCalibur flow cytometry; type: functional, Homo sapiens
MDA-MB-231 = experiment: Anticancer activity against human MDA-MB-231 cells assessed as cell growth inhibition after 20 to 70 hrs by Real-time RTCA iCELLgence system; type: functional, cell-based
[8] = Cytotoxicity against human fibroblast at 2 uM after 48 hrs; type: cell-based
K562 [9] = experiment: Induction of apoptosis in human K562 cells assessed as accumulation of hypodiploid cells at 0.1 uM
Liver microsome [10] = experiment: Drug formation in human liver microsomes treated with 1-(2-Chloro-2-phenylethyl)-3-(4-methyoxyphenyl)-1H-pyrazolo-[3,4-d]pyrimidin-4-amine measured after 1 hr by LC-UV-MS analysis; type: ADME
Liver microsome [11] = experiment: Drug formation in human liver microsomes treated with 3-(4-Chlorophenyl)-1-(2-chloro-2-phenylethyl)-1H-pyrazolo[3,4-d]pyrimidin-4-amine measured after 1 hr by LC-UV-MS analysis; type: ADME
Liver microsome [12] = experiment: Drug formation in human liver microsomes treated with 1-(2-Chloro-2-phenylethyl)-3-phenyl-1H-pyrazolo[3,4-d]-pyrimidin-4-amine hydrocloride measured after 1 hr by LC-UV-MS analysis; type: ADME
Liver microsome [13] = experiment: Drug formation in human liver microsomes treated with 1-(2-Chloro-2-phenylethyl)-3-(4-methylphenyl)-1H-pyrazolo[3,4-d]pyrimidin-4-amine measured after 1 hr by LC-UV-MS analysis; type: ADME
Liver microsome [14] = experiment: Drug formation in human liver microsomes treated with 1-(2-Chloro-2-phenylethyl)-3-(4-fluorophenyl)-1H-pyrazolo[3,4-d]pyrimidin-4-amine measured after 1 hr by LC-UV-MS analysis; type: ADME

Chain of Tyrosine-protein kinase Fyn (P06241 whole entry): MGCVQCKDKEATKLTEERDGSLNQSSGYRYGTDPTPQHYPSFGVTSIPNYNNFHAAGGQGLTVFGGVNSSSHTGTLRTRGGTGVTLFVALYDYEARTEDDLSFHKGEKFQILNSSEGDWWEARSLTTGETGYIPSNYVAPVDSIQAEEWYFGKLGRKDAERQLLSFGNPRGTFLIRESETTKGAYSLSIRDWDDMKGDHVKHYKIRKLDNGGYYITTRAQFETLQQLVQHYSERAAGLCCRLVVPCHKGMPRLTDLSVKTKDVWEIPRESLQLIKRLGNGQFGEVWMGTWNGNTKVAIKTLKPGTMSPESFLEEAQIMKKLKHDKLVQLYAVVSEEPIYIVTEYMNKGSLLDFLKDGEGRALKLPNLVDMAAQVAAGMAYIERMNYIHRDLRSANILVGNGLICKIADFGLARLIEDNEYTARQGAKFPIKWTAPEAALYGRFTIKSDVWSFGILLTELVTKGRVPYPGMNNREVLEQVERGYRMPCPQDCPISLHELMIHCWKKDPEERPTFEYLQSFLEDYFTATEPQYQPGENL

ClC(Cn1ncc2c(NCCc3ccccc3)nc(SCCN3CCOCC3)nc21)c1ccccc1 (stereo not drawn)
Ki [1]: Not Active

Fc1cccc(Nc2nc(SC3CCCC3)nc3c2cnn3CC(Cl)c2ccccc2)c1 (stereo not drawn)
Ki [1]: Not Active

Clc1cccc(Nc2nc(SC3CCCC3)nc3c2cnn3CC(Cl)c2ccccc2)c1 (stereo not drawn)
Ki [1]: Not Active

CCCCSc1nc(NCCc2ccccc2)c2cnn(CC(Cl)c3ccccc3)c2n1 (stereo not drawn)
Ki [1]: Not Active

ClC(Cn1ncc2c(NCCc3ccccc3)nc(SC3CCCC3)nc21)c1ccccc1 (stereo not drawn)
Ki [1]: Not Active

CCC(C)Sc1nc(NCc2ccccc2)c2cnn(CC(Cl)c3ccccc3)c2n1 (stereo not drawn)
Ki [1]: Not Active

CCC(C)Sc1nc(NCCc2ccccc2)c2cnn(CC(Cl)c3ccccc3)c2n1 (stereo not drawn)
Ki [1]: Not Active

Nc1ncnc2c1c(-c1ccccc1)nn2CC(Cl)c1ccccc1 (stereo not drawn)
remaining at 1 h [2]: 78.9%
Papp [3]: 9.5 ×10⁻⁶ cm/s
Papp [4]: 12.8 ×10⁻⁶ cm/s
Ki ([1]; read-out: Ki): 900 nM

Nc1ncnc2c1c(-c1ccc(F)cc1)nn2CC(Cl)c1ccccc1 (stereo not drawn)
IC50 (K562 [5]): 12600 nM
remaining at 1 h [2]: 95.7%
Papp [3]: 12.9 ×10⁻⁶ cm/s
Papp [4]: 16.5 ×10⁻⁶ cm/s

Nc1ncnc2c1c(-c1ccc(Cl)cc1)nn2CC(Cl)c1ccccc1 (stereo not drawn)
IC50 [6]: 74 nM
IC50 (K562 [5]): 560 nM
Activity [7]: 35%
remaining at 1 h [2]: 85.2%
IC50 (MDA-MB-231): 3700 nM
Papp [3]: 8.4 ×10⁻⁶ cm/s
Papp [4]: 9.9 ×10⁻⁶ cm/s
Activity [8]: Non-toxic

Cc1ccc(-c2nn(CC(Cl)c3ccccc3)c3ncnc(N)c23)cc1 (stereo not drawn)
IC50 [6]: 780 nM
IC50 (K562 [5]): 300 nM
Activity [7]: 30%
remaining at 1 h [2]: 90%
IC50 (MDA-MB-231): 8300 nM
Papp [3]: 11.5 ×10⁻⁶ cm/s
Papp [4]: 10.9 ×10⁻⁶ cm/s
Activity [8]: Non-toxic
Activity (K562 [9]): 50%

COc1ccc(-c2nn(CC(Cl)c3ccccc3)c3ncnc(N)c23)cc1 (stereo not drawn)
remaining at 1 h [2]: 95.6%
Papp [3]: 14.5 ×10⁻⁶ cm/s
Papp [4]: 17.5 ×10⁻⁶ cm/s

CC(Cn1nc(-c2ccc(Cl)cc2)c2c(N)ncnc21)c1ccccc1 (stereo not drawn)
Ki ([1]; read-out: Ki): 780 nM

CC(=O)c1ccc(-c2nn(CC(C)c3ccccc3)c3ncnc(N)c23)cc1 (stereo not drawn)
Ki ([1]; read-out: Ki): 10000 nM

CNc1nc(SC)nc2c1c(-c1ccccc1)nn2CCc1ccccc1
Ki ([1]; read-out: Ki): 10000 nM

COC(Cn1nc(-c2ccccc2)c2c(N)nc(SC)nc21)c1ccccc1 (stereo not drawn)
Ki ([1]; read-out: Ki): 10000 nM

CCc1ccc2[nH]c(=O)c(CN(Cc3ccc4c(c3)OCO4)C(=O)Nc3ccc(F)cc3)cc2c1
Ki ([1]; read-out: Ki): 2100 nM

CCOc1ccc(-c2[nH]ncc2CN2CCN(S(=O)(=O)N3CCCC3)CC2)cc1
Ki ([1]; read-out: Ki): 2250 nM

Cc1ccc(-c2cc(-c3ccccc3)c3c(N)c(C(=O)Nc4ccc(F)cc4)sc3n2)cc1
Ki [1]: Not Active

Nc1ncnc2c1c(-c1ccccc1)nn2CC(=O)c1ccccc1
Drug metabolism (Liver microsome [10]): metabolite_detected
Drug metabolism (Liver microsome [11]): metabolite_detected
Drug metabolism (Liver microsome [12]): metabolite_detected
Drug metabolism (Liver microsome [13]): metabolite_detected
Drug metabolism (Liver microsome [14]): metabolite_detected

Nc1ncnc2c1c(-c1ccccc1)nn2CC(O)c1ccccc1 (stereo not drawn)
Drug metabolism (Liver microsome [10]): metabolite_detected
Drug metabolism (Liver microsome [11]): metabolite_detected
Drug metabolism (Liver microsome [12]): metabolite_detected
Drug metabolism (Liver microsome [13]): metabolite_detected
Drug metabolism (Liver microsome [14]): metabolite_detected

Nc1ncnc2c1c(-c1ccc(O)cc1)nn2CC(Cl)c1ccccc1 (stereo not drawn)
Drug metabolism (Liver microsome [10]): metabolite_detected

From ChEMBL document CHEMBL3576773, “Studies on the ATP Binding Site of Fyn Kinase for the Identification of New Inhibitors and Their Evaluation as Potential Agents against Tauopathies and Tumors” (J Med Chem, 2015)
